According to US7053055B2, “Compounds of unstable DP IV-inhibitors” (priority 1998, dated 2006):

Legend:
DP IV [1] = biological target: T1, DP IV (Homo sapiens, UniProt P27487); assay: DP IV-catalysed hydrolysis of H-Gly-Pro-pNA in the presence of inhibitor (progress curves); assay type: biochemical
Description: When the DP IV target enzyme is incubated with unstable inhibitors in the presence of a substrate, inhibition of the enzyme is observed initially; the inhibition subsides again as the experimental time progresses as a result of the intramolecular cyclisation of the inhibitor which takes place in parallel, since the concentration of the inhibitor in the reaction solution decreases as a result of the spontaneously occurring chemical reaction. Because of the time-dependent drop in the concentration of the inhibitor, the rate of the enzyme-catalysed hydrolysis of the substrate increases again as time progresses.
(§1) The active DP IV-inhibitor H-Val-Pro-CH2—(N^+C5H5) is released only as a result of the addition of the DP IV enzyme (used here by way of example also to release the DP IV-inhibitor) with removal of the N-terminal dipeptide H-Gly-Pro-OH. Accordingly, in the mass spectrum (FIG. 7) markedly more than 50% of the incubated compound according to the invention can be detected even after an incubation period of 60 minutes.

DP IV [2] = biological target: T1, DP IV; assay: Stability and DP IV-catalysed cleavage of the masked compound, MALDI-TOF mass spectrum of incubation batch; assay type: biochemical
Description: as §1

[3] = Intramolecular cyclisation in aqueous buffer solution monitored by MALDI-TOF mass spectrometry; assay type: physicochemical; conditions: aqueous buffer solution pH=7.6, MALDI-TOF MS
Source text: The products of that reaction are the respective pyrazine derivatives (FIG. 1).

[4] = Intramolecular cyclisation (stability) in 0.1 M HEPES buffer quantified by UV spectrometry; assay type: physicochemical; conditions: pH=7.6, 25° C.; for k (rate constant of intramolecular cyclisation): UV spectrometry
Description: The cyclisation reaction was monitored over a period of 40 minutes. The formation of the double bond system of the pyrazine, which takes place during the intramolecular reaction, enables quantitative analysis of the cyclisation process by means of UV spectrometry (FIG. 4). The rate constants determined there from for the intramolecular cyclisation of unstable DP IV-inhibitors in 0.1 M HEPES buffer, pH=7.6, 25° C., are shown in Table 1.

T1 sequence (P27487 whole entry): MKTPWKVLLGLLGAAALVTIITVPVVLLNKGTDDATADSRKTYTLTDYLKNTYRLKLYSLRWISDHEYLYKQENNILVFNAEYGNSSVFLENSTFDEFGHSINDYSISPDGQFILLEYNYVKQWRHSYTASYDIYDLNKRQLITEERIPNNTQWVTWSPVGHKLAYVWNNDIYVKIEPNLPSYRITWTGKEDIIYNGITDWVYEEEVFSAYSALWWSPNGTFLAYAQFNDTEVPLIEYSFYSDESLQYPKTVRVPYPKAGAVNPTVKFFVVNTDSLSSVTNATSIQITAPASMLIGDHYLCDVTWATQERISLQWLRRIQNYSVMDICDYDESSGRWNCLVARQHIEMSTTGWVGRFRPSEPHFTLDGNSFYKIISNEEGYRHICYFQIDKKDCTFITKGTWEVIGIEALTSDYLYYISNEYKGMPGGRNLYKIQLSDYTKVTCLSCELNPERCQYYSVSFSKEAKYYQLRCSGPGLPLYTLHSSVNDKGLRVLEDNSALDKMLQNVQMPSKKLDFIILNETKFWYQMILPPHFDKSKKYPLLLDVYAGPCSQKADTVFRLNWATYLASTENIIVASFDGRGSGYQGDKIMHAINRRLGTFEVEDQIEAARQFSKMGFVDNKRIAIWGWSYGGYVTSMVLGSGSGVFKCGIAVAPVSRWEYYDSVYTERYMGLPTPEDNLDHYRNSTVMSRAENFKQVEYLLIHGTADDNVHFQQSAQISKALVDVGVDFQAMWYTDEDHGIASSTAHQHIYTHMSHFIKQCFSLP

Row | SMILES | Duration of DP IV-inhibitory activity compared with the unstable DP IV-inhibitors (DP IV [1]; 2.6×10^−5 mol/litre compound, FIG. 8) | Inhibition of the target enzyme DP IV (DP IV [1]; substrate H-Gly-Pro-pNA, 0.06 μg/ml DP IV, 0.1 M HEPES pH=7.6, 30° C.) | Incubated compound still detectable in mass spectrum (DP IV [2]; incubation with 0.06 μg/ml DP IV, 0.1 M HEPES pH=7.6, 30° C., after 60 minutes) | Stability in buffered aqueous solution in the absence of an enzyme (DP IV [2]; over a period of 24 hours) | Period within which breakdown to the cyclic pyrazine derivative is completed quantitatively [3] | half-life [4] | k (rate constant of intramolecular cyclisation) [4]
1 | CC(C)C(NC(=O)C1CCCN1C(=O)CN)C(=O)N1CCCC1C(=O)C[n+]1ccccc1.[Cl-] (stereo not drawn) [H-Gly-Pro-Val-Pro-CH2—(N+C5H5), H-Gly-Pro-Val-Pro-CH2—(N^+C5H5)/C1^−] | markedly prolonged activity | effective inhibition of the target enzyme | more than 50% | stable |  |  | 
2 | NC(Cc1ccccc1)C(=O)N1CCCC1C(=O)C[n+]1ccccc1.[Cl-] (stereo not drawn) [H-Phe-Pro-CH2-(N^+C5H5), H-Phe-Pro-CH2—(N^+C5H5)/C1^−] |  |  |  |  | ≤ 30 min | 9.6 min | 0.0012 min⁻¹
3 | CC(C)C(N)C(=O)N1CCCC1C(=O)C[n+]1ccccc1.[Cl-] (stereo not drawn) [H-Val-Pro-CH2-(N^+C5H5), H-Val-Pro-CH2—(N^+C5H5)/C1] |  |  |  |  | ≤ 60 min | 13.3 min | 0.00087 min⁻¹
